# Data from PubChem BioAssay AID1745844 (Carcinogenic Potency Database (CPDB), 2022).
# Calls of active or inactive are those of the source. How the calls were made is not given here.
# System: rodent lifetime carcinogenesis bioassay, tumor incidence TD50
# Assay: chronic cancer bioassays in animals – CPDB, compiled studies (AID 1745844)
smiles,measurement,setting,value
CN1CCCC1=O,TD50,"mouse, strain B6C3F1, females, in feed, site: any site (literature study), lesion: benign tumor, dosed 78 weeks, study length 78 weeks",3440 mg/kg/day
same,TD50,"mouse, strain B6C3F1, females, in feed, site: any site (literature study), lesion: malignant tumor, dosed 78 weeks, study length 78 weeks",14900 mg/kg/day
same,TD50,"mouse, strain B6C3F1, females, in feed, site: liver, lesion: hepatocellular adenoma, dosed 78 weeks, study length 78 weeks",3320 mg/kg/day
same,TD50,"mouse, strain B6C3F1, females, in feed, site: liver, lesion: hepatocellular carcinoma, dosed 78 weeks, study length 78 weeks",7330 mg/kg/day
same,TD50,"mouse, strain B6C3F1, males, in feed, site: any site (literature study), lesion: benign tumor, dosed 78 weeks, study length 78 weeks",1630 mg/kg/day
same,TD50,"mouse, strain B6C3F1, males, in feed, site: any site (literature study), lesion: malignant tumor, dosed 78 weeks, study length 78 weeks",2270 mg/kg/day
same,TD50,"mouse, strain B6C3F1, males, in feed, site: liver, lesion: hepatocellular adenoma, dosed 78 weeks, study length 78 weeks",1760 mg/kg/day
same,TD50,"mouse, strain B6C3F1, males, in feed, site: liver, lesion: hepatocellular carcinoma, dosed 78 weeks, study length 78 weeks",1480 mg/kg/day
same,TD50,"mouse, strain B6C3F1, males, in feed, site: lung, lesion: adenoma, dosed 78 weeks, study length 78 weeks",4080 mg/kg/day
same,carcinogen call,"rat, strain Charles River CD (Sprague-Dawley), females, in feed, site: any site (literature study), lesion: several types, types named in the paper, dosed 104 weeks, study length 104 weeks",negative (inactive)
same,carcinogen call,"rat, strain Charles River CD (Sprague-Dawley), females, in feed, site: liver, lesion: several types, types named in the paper, dosed 104 weeks, study length 104 weeks",negative (inactive)
same,carcinogen call,"rat, strain Charles River CD (Sprague-Dawley), females, inhaled, site: liver, lesion: one or several types, types not named, dosed 104 weeks, study length 104 weeks",negative (inactive)
same,TD50,"rat, strain Charles River CD (Sprague-Dawley), males, in feed, site: any site (literature study), lesion: several types, types named in the paper, dosed 104 weeks, study length 104 weeks",6060 mg/kg/day (inactive)
same,TD50,"rat, strain Charles River CD (Sprague-Dawley), males, in feed, site: liver, lesion: several types, types named in the paper, dosed 104 weeks, study length 104 weeks",58500 mg/kg/day (inactive)
same,carcinogen call,"rat, strain Charles River CD (Sprague-Dawley), males, inhaled, site: liver, lesion: one or several types, types not named, dosed 104 weeks, study length 104 weeks",negative (inactive)
O=[N+]([O-])c1ccc2ccc3cccc4ccc1c2c34,TD50,"rat, strain Fischer 344/Jcl, females, by gavage, site: all sites, lesion: mononuclear-cell leukemia, dosed 55 weeks, study length 104 weeks",4.33 mg/kg/day
same,TD50,"rat, strain Fischer 344/Jcl, females, by gavage, site: clitoral gland, lesion: adenocarcinoma, dosed 55 weeks, study length 104 weeks",157 mg/kg/day
same,TD50,"rat, strain Fischer 344/Jcl, females, by gavage, site: clitoral gland, lesion: several types, types named in the paper, dosed 55 weeks, study length 104 weeks",6.16 mg/kg/day
same,TD50,"rat, strain Fischer 344/Jcl, females, by gavage, site: clitoral gland, lesion: squamous-cell carcinoma, dosed 55 weeks, study length 104 weeks",6.08 mg/kg/day
same,TD50,"rat, strain Fischer 344/Jcl, females, by gavage, site: mammary gland, lesion: adenocarcinoma, dosed 55 weeks, study length 104 weeks",4.82 mg/kg/day
same,TD50,"rat, strain Fischer 344/Jcl, females, by gavage, site: mammary gland, lesion: adenoma, dosed 55 weeks, study length 104 weeks",51.4 mg/kg/day
same,TD50,"rat, strain Fischer 344/Jcl, females, by gavage, site: mammary gland, lesion: fibroadenoma, dosed 55 weeks, study length 104 weeks",39.6 mg/kg/day
same,TD50,"rat, strain Fischer 344/Jcl, females, by gavage, site: mammary gland, lesion: several types, types named in the paper, dosed 55 weeks, study length 104 weeks",3.33 mg/kg/day
same,TD50,"rat, strain Fischer 344/Jcl, females, by gavage, site: uterus, lesion: endometrial stromal polyp, dosed 55 weeks, study length 104 weeks",13.1 mg/kg/day
Nc1ccc(-c2ccc(N)c(O)c2)cc1O,TD50,"mouse, strain ICR/Jcl, males, in feed, site: liver, lesion: hepatoma, dosed 65 weeks, study length 65 weeks",353 mg/kg/day
N#Cc1ccc(C2CCCc3cncn32)cc1 (stereo not drawn),carcinogen call,"rat, strain Sprague-Dawley, females, by gavage, site: any site (literature study), lesion: several types, types named in the paper, dosed 104 weeks, study length 104 weeks",negative (inactive)
same,carcinogen call,"rat, strain Sprague-Dawley, females, by gavage, site: liver, lesion: several types, types named in the paper, dosed 104 weeks, study length 104 weeks",negative (inactive)
same,carcinogen call,"rat, strain Sprague-Dawley, females, by gavage, site: mammary gland, lesion: several types, types named in the paper, dosed 104 weeks, study length 104 weeks",negative (inactive)
same,carcinogen call,"rat, strain Sprague-Dawley, males, by gavage, site: liver, lesion: several types, types named in the paper, dosed 104 weeks, study length 104 weeks",negative (inactive)
N/C(=N\O)c1ccc([N+](=O)[O-])o1,TD50,"rat, strain Sprague-Dawley, females, in feed, site: any site (literature study), lesion: several types, types named in the paper, dosed 46 weeks, study length 66 weeks",42 mg/kg/day (inactive)
C[C@@H]1CCCCN1N=O,TD50,"rat, strain Sprague-Dawley, both sexes, in drinking water, site: any site (literature study), lesion: malignant tumor, dosed 104 weeks, study length 104 weeks",20.4 mg/kg/day
same,TD50,"rat, strain Sprague-Dawley, both sexes, in drinking water, site: liver, lesion: hepatocellular adenoma, dosed 104 weeks, study length 104 weeks",108 mg/kg/day
same,TD50,"rat, strain Sprague-Dawley, both sexes, in drinking water, site: n. olfactorius, lesion: ependymoblastoma, dosed 104 weeks, study length 104 weeks",22.1 mg/kg/day
O=C1c2ccccc2C(=O)c2c(O)c(O)cc(O)c21,TD50,"rat, strain Fischer 344, males, in feed, site: urinary bladder, lesion: malignant tumor, dosed 74 weeks, study length 74 weeks",678 mg/kg/day
same,TD50,"rat, strain Fischer 344, males, in feed, site: urinary bladder, lesion: squamous-cell carcinoma, dosed 74 weeks, study length 74 weeks",3680 mg/kg/day
same,TD50,"rat, strain Fischer 344, males, in feed, site: urinary bladder, lesion: transitional-cell carcinoma, dosed 74 weeks, study length 74 weeks",865 mg/kg/day
CC(/C=C/C=C(\C)C(=O)O[C@@H]1O[C@H](CO[C@@H]2O[C@H](CO)[C@@H](O)[C@H](O)[C@H]2O)[C@@H](O)[C@H](O)[C@H]1O)=C\C=C\C=C(C)\C=C\C=C(/C)C(=O)O[C@@H]1O[C@H](CO[C@@H]2O[C@H](CO)[C@@H](O)[C@H](O)[C@H]2O)[C@@H](O)[C@H](O)[C@H]1O,carcinogen call,"mouse, strain C57BL/6N, females, in drinking water, site: liver, lesion: hepatoma, dosed 95 weeks, study length 95 weeks",negative (inactive)
same,carcinogen call,"mouse, strain C57BL/6N, females, in drinking water, site: lung, lesion: one or several types, types not named, dosed 95 weeks, study length 95 weeks",negative (inactive)
same,carcinogen call,"mouse, strain C57BL/6N, males, in drinking water, site: liver, lesion: hepatoma, dosed 95 weeks, study length 95 weeks",negative (inactive)
same,carcinogen call,"mouse, strain C57BL/6N, males, in drinking water, site: lung, lesion: one or several types, types not named, dosed 95 weeks, study length 95 weeks",negative (inactive)
CC1=C[C@H]2O[C@@H]3[C@H](O)C[C@](C)([C@@]2(CO)[C@H](O)C1=O)[C@]31CO1,carcinogen call,"mouse, strain B6C3F1, males, in feed, site: liver, lesion: hepatocellular adenoma, dosed 104 weeks, study length 104 weeks",negative (inactive)
same,carcinogen call,"mouse, strain B6C3F1, males, in feed, site: liver, lesion: hepatocellular carcinoma, dosed 104 weeks, study length 104 weeks",negative (inactive)
CC1CN(N=O)CC(C)N1C (stereo not drawn),TD50,"hamster, strain Syrian Golden, males, by gavage, site: forestomach, lesion: papilloma, dosed 46 weeks, study length 69 weeks",1.32 mg/kg/day
same,TD50,"hamster, strain Syrian Golden, males, by gavage, site: liver, lesion: angiosarcoma, dosed 46 weeks, study length 69 weeks",6.18 mg/kg/day
same,TD50,"hamster, strain Syrian Golden, males, by gavage, site: lung, lesion: adenoma, dosed 46 weeks, study length 69 weeks",1.73 mg/kg/day
same,TD50,"hamster, strain Syrian Golden, males, by gavage, site: lung, lesion: carcinoma, dosed 46 weeks, study length 69 weeks",3.2 mg/kg/day
same,TD50,"rat, strain Fischer 344, females, in drinking water, site: nasal cavity, lesion: olfactory carcinoma, dosed 30 weeks, study length 85 weeks",0.151 mg/kg/day
CC(C)Oc1ccc(Nc2ccccc2)cc1,TD50,"mouse, strain B6AKF1, females, oral dosing, site: any site (literature study), lesion: several types, types named in the paper, dosed 76 weeks, study length 76 weeks",1200 mg/kg/day (inactive)
same,TD50,"mouse, strain B6AKF1, females, oral dosing, site: liver, lesion: angioma, dosed 76 weeks, study length 76 weeks",2650 mg/kg/day (inactive)
same,carcinogen call,"mouse, strain B6AKF1, females, oral dosing, site: lung, lesion: adenoma, dosed 76 weeks, study length 76 weeks",negative (inactive)
same,TD50,"mouse, strain B6AKF1, males, oral dosing, site: any site (literature study), lesion: several types, types named in the paper, dosed 76 weeks, study length 76 weeks",985 mg/kg/day (inactive)
same,TD50,"mouse, strain B6AKF1, males, oral dosing, site: liver, lesion: hepatoma, dosed 76 weeks, study length 76 weeks",1130 mg/kg/day (inactive)
same,TD50,"mouse, strain B6AKF1, males, oral dosing, site: lung, lesion: adenoma, dosed 76 weeks, study length 76 weeks",2180 mg/kg/day (inactive)
same,TD50,"mouse, strain B6C3F1, females, oral dosing, site: any site (literature study), lesion: several types, types named in the paper, dosed 76 weeks, study length 76 weeks",1290 mg/kg/day (inactive)
same,TD50,"mouse, strain B6C3F1, females, oral dosing, site: liver, lesion: hepatoma, dosed 76 weeks, study length 76 weeks",2650 mg/kg/day (inactive)
same,carcinogen call,"mouse, strain B6C3F1, females, oral dosing, site: lung, lesion: several types, types named in the paper, dosed 76 weeks, study length 76 weeks",negative (inactive)
same,TD50,"mouse, strain B6C3F1, males, oral dosing, site: any site (literature study), lesion: several types, types named in the paper, dosed 76 weeks, study length 76 weeks",300 mg/kg/day (inactive)
same,TD50,"mouse, strain B6C3F1, males, oral dosing, site: liver, lesion: hepatoma, dosed 76 weeks, study length 76 weeks",679 mg/kg/day (inactive)
same,TD50,"mouse, strain B6C3F1, males, oral dosing, site: lung, lesion: adenoma, dosed 76 weeks, study length 76 weeks",2180 mg/kg/day (inactive)
CN(C)N=Nc1ccccc1,TD50,"rat, strain BD, both sexes, by gavage, site: any site (literature study), lesion: malignant tumor, dosed 104 weeks, study length 104 weeks",2.31 mg/kg/day
same,TD50,"rat, strain BD, both sexes, by gavage, site: brain, lesion: several types, types named in the paper, dosed 104 weeks, study length 104 weeks",5.81 mg/kg/day
CN(N=O)c1ccc(F)cc1,TD50,"rat, strain Fischer 344, males, in drinking water, site: esophagus, lesion: several types, types named in the paper, dosed 50 weeks, study length 114 weeks",0.255 mg/kg/day
same,TD50,"rat, strain Fischer 344, males, in drinking water, site: liver, lesion: hyperplastic nodule, dosed 50 weeks, study length 114 weeks",10.3 mg/kg/day
